Reference: BindingDB's records for doi:10.1016/S0960-894X(97)00031-0 (1997)

Target: Human immunodeficiency virus type 1 protease (Human immunodeficiency virus 1, UniProt Q72874)
Assay: ChEBML_157558
Source text: Inhibition of HIV-1 protease.

| Structure (SMILES) | Ki [nM] |
| --- | --- |
| O=c1oc2c(c(O)c1C(c1cccc(CS(=O)(=O)c3ccccn3)c1)C1CC1)CCCCCC2 (configuration not stated) [3-{Cyclopropyl-[3-(pyridine-2-sulfonylmethyl)-phenyl]-methyl}-4-hydroxy-5,6,7,8,9,10-hexahydro-cycloocta[b]pyran-2-one] | 1.9 |
| N#Cc1ccc(S(=O)(=O)Cc2cccc(C(c3c(O)c4c(oc3=O)CCCCCC4)C3CC3)c2)cc1 (configuration not stated) [4-{3-[Cyclopropyl-(4-hydroxy-2-oxo-5,6,7,8,9,10-hexahydro-2H-cycloocta[b]pyran-3-yl)-methyl]-phenylmethanesulfonyl}-benzonitrile] | 1.9 |
